# Test results reported in US20240043448A1, “Small Molecule Inhibitors of KRAS G12C Mutant” (Merck Sharp & Dohme LLC, priority 2019, published 2024).
# Read-outs that look alike come from different tables or passages of the source.
# Assays:
# [1] = biological target: Biotinylated KRAS G12C protein (Homo sapiens (Human), UniProt P01116, C118S/C51S/C80L/G12C); assay: SOS-catalyzed nucleotide exchange assay (TR-FRET); assay type: biochemical; details: in vitro apparent potency; preincubation time of 60 minutes prior to addition of SOS
# Outline: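 Biotinylated KRAS G12C preloaded with Bodipy-GDP and Tb-streptavidin, then incubated with compound (10-point, 3-fold series) for 60 min at RT. Exchange started with SOS and GTP for 60 min. TR-FRET 520/495 ratio normalised to DMSO and saturating-inhibitor controls; four-parameter fit.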
# phospho-ERK = assay: Cellular phospho-ERK assay; assay type: cell-based; details: NCI-H358 cells, 2 hour incubation, ratio of p-Erk vs total Erk, read-out: IC50 (nM) pERK (Cell)
# Outline: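 NCI-H358 cells seeded overnight, then exposed to compound dose-response titrations for 2 hours at 37° C. in RPMI. Lysates assayed by AlphaLISA SureFire Ultra multiplex for p-Erk and total Erk; ratio p-Erk/total Erk used as readout, IC50 from 4-parameter logistic fit.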
# Biotinylated KRAS G12C protein, sequence (P01116 other isoform, or with tags, fused parts or gaps, stated change not applied): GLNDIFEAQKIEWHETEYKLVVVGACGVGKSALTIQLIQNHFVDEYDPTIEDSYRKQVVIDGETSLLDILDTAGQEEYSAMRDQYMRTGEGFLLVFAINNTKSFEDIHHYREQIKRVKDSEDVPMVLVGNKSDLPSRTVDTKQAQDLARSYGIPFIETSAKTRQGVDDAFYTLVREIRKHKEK
Structure (SMILES),IC50 [1] [nM],IC50 (phospho-ERK) [nM],"IC50 (phospho-ERK; Homo sapiens, NCI-H358, 2 h) [nM]"
"C=CC(=O)N1C[C@H](C)N(c2nc(=O)n3c4nc(c(Cl)cc24)-c2c(F)cccc2OCCc2ccnc(C(C)C)c2-3)C[C@H]1C (atropisomer, axis not shown) [Example 119, 19-chloro-2-[(2S,5R)-2,5-dimethyl-4-(prop-2-enoyl)piperazin-1-yl]-16-fluoro-6-(propan-2-yl)-10,11-dihydro-4H-1,17-ethenopyrido[4,3-d]pyrimido[1,6-f][1,6,8]benzoxadiazacycloundecin-4-one]",2.6,5.1,
"C=CC(=O)N1CC2CCC1CN2c1nc(=O)n2c3nc(c(F)cc13)-c1c(F)cccc1OCCCc1ccnc(C(C)C)c1-2 (centres unmarked) [Example 106, 17,20-difluoro-4-oxo-6-(propan-2-yl)-2-[5-(prop-2-enoyl)-2,5-diazabicyclo[2.2.2]octan-2-yl]-11,12-dihydro-4H,10H-1,18-ethenopyrido[4,3-e]pyrimido[1,6-g][1,7,9] benzoxadiazacyclododecin-4-one]",2550,5620,
"C=CC(=O)N1C[C@H](C)N(c2nc(=O)n3c4nc(c(F)cc24)-c2c(Cl)cccc2OCCCc2ccnc(C(C)C)c2-3)C[C@H]1C [Example 76, 17-chloro-2-[(2S,5R)-2,5-dimethyl-4-(prop-2-enoyl)piperazin-1-yl]-20-fluoro-6-(propan-2-yl)-11,12-dihydro-4H,10H-1,18-ethenopyrido[4,3-e]pyrimido[1,6-g][1,7,9]benzoxadiazacyclododecin-4-one]",2.3,,3.6
"C=CC(=O)N1C[C@H](C)N(c2nc(=O)n3c4nc(c(F)cc24)-c2c(F)cccc2OCCCCc2cnc(C(C)C)c-3c2C)C[C@H]1C (single isomer, unassigned) [Example 89]",71,4160,
"[2H]C1([2H])Oc2ccc(F)c(F)c2-c2nc3c(cc2Cl)c(N2CC(C)N(C(=O)C=C)CC2C)nc(=O)n3-c2c(ccnc2C(C)C)OC1([2H])[2H] [Example 57, (5aSa,17aRa)-20-chloro-2-[(2S,5R)-2,5-dimethyl-4-(prop-2-enoyl)piperazin-1-yl]-16,17-difluoro-6-(propan-2-yl)-11,12-di[(^2H)hydro](11,12-^2H2)-4H-1,18-(ethanediylidene)pyrido [4,3-e]pyrimido[1,6-g] [1,4,7,9]benzodioxadiaza-cyclododecin-4-one]",0.51,,6.1
"C=CC(=O)N1CCN(c2nc(=O)n3c4nc(c(F)cc24)-c2ccnn2CCCCc2ccnc(C(C)C)c2-3)[C@@H](C)C1 [Example 5, 20-fluoro-2-[(2S)-2-methyl-4-(prop-2-enoyl)piperazin-1-yl]-6-(propan-2-yl)-10,11,12,13-tetrahydro-4H-1,18-(ethanediylidene)-pyrazolo[5,1-e]pyrido-[4,3-k]pyrimido[1,6-a]-[1,3,6]triazacyclododecin-4-one]",898,,4440
"C=CC(=O)N1C[C@@H]2C[C@H]1CN2c1nc(=O)n2c3nc(c(F)cc13)-c1c(F)cccc1OCCCCc1ccnc(C(C)C)c1-2 [Example 104, 18,21-difluoro-6-(propan-2-yl)-2-[(1S,4S)-5-(prop-2-enoyl)-2,5-diazabicyclo[2.2.1]heptan-2-yl]-10,11,12,13-tetrahydro-4H-1,19-ethenopyrido[4,3-f]pyrimido[1,6-h][1,8,10]benzoxadiazacyclotridecin-4-one]",1470,,8850
"C=CC(=O)N1C[C@H](C)N(c2nc(=O)n3c4nc(c(F)cc24)-c2c(ccc(F)c2F)OCCC(C)c2ccnc(C(C)C)c2-3)C[C@H]1C (single isomer, unassigned) [Example 91]",113,,410
"C=CC(=O)N1C[C@H](C)N(c2nc(=O)n3c4nc(c(F)cc24)-c2c(Cl)cccc2OCCOc2ccnc(C(C)C)c2-3)C[C@H]1C [Example 83, 17-chloro-2-[(2S,5R)-2,5-dimethyl-4-(prop-2-enoyl)piperazin-1-yl]-20-fluoro-6-(propan-2-yl)-11,12-dihydro-4H-1,18-(ethanediylidene)pyrido[4,3-e]pyrimido[1,6-g][1,4,7,9]benzodioxadiazacyclododecin-4-one]",11,,8.9
"C=CC(=O)N1CCN(c2nc(=O)n3c4nc(c(F)cc24)-c2c(F)ccc(F)c2OCCCCc2ccnc(C(C)C)c2-3)[C@@H](C)C1 [Example 79, 15,18,21-trifluoro-2-[(2S)-2-methyl-4-(prop-2-enoyl)piperazin-1-yl]-6-(propan-2-yl)-10,11,12,13-tetrahydro-4H-1,19-(ethanediylidene)pyrido[4,3-f]pyrimido[1,6-h][1,8,10]benzoxadiazacyclotridecin-4-one]",2.6,,7
"C=CC(=O)N1CCN(c2nc(=O)n3c4nc(c(F)cc24)-c2c(F)cccc2OCCCc2ccnc(C(C)C)c2-3)[C@@H](C)C1 (single isomer, unassigned) [Example 10b]",2590,4380,
"C=CC(=O)N1C[C@H](C)N(c2nc(=O)n3c4nc(c(Cl)cc24)-c2c(F)cccc2OCCCc2ccnc(C(C)C)c2-3)C[C@H]1C [Example 63, 20-chloro-2-[(2S,5R)-2,5-dimethyl-4-(prop-2-enoyl)piperazin-1-yl]-17-fluoro-6-(propan-2-yl)-11,12-dihydro-4H,10H-1,18-(ethanediylidene)pyrido[4,3-e]pyrimido[1,6-g][1,7,9] benzoxadiazacyclodo-decin-4-one]",3.6,,2
"C=CC(=O)N1C[C@H](C)N(c2nc(=O)n3c4nc(c(F)cc24)-c2c(F)ccc(F)c2OCC2(CCc4ccnc(C(C)C)c4-3)CC2)C[C@H]1C [Example 61, 2′-[(2S,5R)-2,5-dimethyl-4-(prop-2-enoyl)piperazin-1-yl]-15′,18′,21′-trifluoro-6′-(propan-2-yl)-10′,11′-dihydro-4′H,13′H-spiro[cyclopropane-1,12′-[14]oxa [3,5,7,20]tetraaza[1,19] (ethanediylidene)pyrido[4,3-f]pyrimido[1,6-h][1,8,10]benzoxadiazacyclotri-decin]-4′-one]",2.3,,43
"C=CC(=O)N1CCN(c2nc(=O)n3c4nc(c(F)cc24)-c2cccnc2OCCCOc2ccnc(C(C)C)c2-3)[C@@H](C)C1 (single isomer, unassigned) [Example 2a]",2680,,13900
"C=CC(=O)N1CC(C)N(c2nc(=O)n3c4nc(c(F)cc24)-c2c(F)ccc4cnn(c24)CCCCc2ccnc(C(C)C)c2-3)CC1C [Example 107, 2-[(2S,5R)-2,5-dimethyl-4-(prop-2-enoyl)piperazin-1-yl]-19,22-difluoro-6-(propan-2-yl)-10,11,12,13-tetrahydro-4H-1,20-(ethanediylidene)pyrido[4′,3′:12,13]pyrimido[1′,6′:1,2][1,3,7]triazacyclotridecino[5,6,7-hi]indazol-4-one]",10,20,
"C=CC(=O)N1C[C@H](C)N(c2nc(=O)n3c4nc(c(F)cc24)-c2c(F)ccc(F)c2OCCOc2ccnc(Cl)c2-3)C[C@H]1C [Example 87, 6-chloro-2-[(2S,5R)-2,5-dimethyl-4-(prop-2-enoyl)piperazin-1-yl]-14,17,20-trifluoro-11,12-dihydro-4H-1,18-ethenopyrido[4,3-e]pyrimido[1,6-g][1,4,7,9] benzodioxadiazacyclododecin-4-one]",461,,3210
"C=CC(=O)N1C[C@H](C)N(c2nc(=O)n3c4nc(c(F)cc24)-c2c(F)cccc2OCC2(CCc4ccnc(C(C)C)c4-3)CC2)C[C@H]1C [Example 60, 2′-[(2S,5R)-2,5-dimethyl-4-(prop-2-enoyl)piperazin-1-yl]-18′,21′-difluoro-6′-(propan-2-yl)-10′,11′-dihydro-4′H,13′H-spiro[cyclopropane-1,12′-[14]oxa[3,5,7,20]tetraaza[1,19] (ethanediylidene)pyrido[4,3-f]pyrimido[1,6-h][1,8,10]benzoxadiazacyclotri-decin]-4′-one]",1.5,,17

# Continued, values first:
IC50 [1] [nM],IC50 (phospho-ERK) [nM],"IC50 (phospho-ERK; Homo sapiens, NCI-H358, 2 h) [nM]",Structure (SMILES)
54,1220,,"C=CC(=O)N1CCN(c2nc(=O)n3c4nc(c(F)cc24)-c2c(F)cccc2CC[C@@H](O)Cc2ccnc(C(C)C)c2-3)[C@@H](C)C1 [Example 118-2, 17,20-difluoro-11-hydroxy-2-[(2S)-2-methyl-4-(prop-2-enoyl)piperazin-1-yl]-6-(propan-2-yl)-10,11,12,13-tetrahydro-4H-1,18-ethenopyrido[3,4-e]pyrimido[6,1-c][2,4]benzodiazacyclododecin-4-one]"
7.2,27,,"C=CC(=O)N1C[C@H](C)N(c2nc(=O)n3c4nc(c(F)cc24)-c2c(F)cccc2OCC(F)(F)COc2ccnc(C(C)C)c2-3)C[C@H]1C (single isomer, unassigned) [Example 13a]"
6.8,117,,"C=CC(=O)N1CCN(c2nc(=O)n3c4nc(c(F)cc24)-c2c(F)cccc2C(=O)NCCCc2ccnc(C(C)C)c2-3)[C@@H](C)C1 (single isomer, unassigned) [Example 19a]"
4520,> 30000,,"C=CC(=O)N1CCN(c2nc(=O)n3c4nc(c(F)cc24)-c2c(F)cccc2C(=O)NCCCc2ccnc(C(C)C)c2-3)[C@H](C)C1 [Example 19b, 18,21-difluoro-2-[(2S)-2-methyl-4-(prop-2-enoyl)piperazin-1-yl]-6-(propan-2-yl)-10,11,12,13-tetrahydro-1,19-ethenopyrido[3,4-e]pyrimido[6,1-c][2,4,10]benzotriazacyclotridecine-4,14-dione]"
8530,22100,,"C=CC(=O)N1C[C@H](C)N(c2nc(=O)n3c4nc(c(F)cc24)-c2c(F)cccc2OCC(F)(F)COc2ccnc(C(C)C)c2-3)C[C@H]1C (single isomer, unassigned) [Example 13b]"
